We go through 17 molecules from PubChem BioAssay (NCI).

Some test systems named below: SK-MEL-2 melanoma; OVCAR-4 ovarian; OVCAR-5 ovarian; SW-620 colon; DLD-1 colon; A549 NSCLC; XF 498 CNS; HL-60(TB) leukemia.
Common to all, as to test: NCI anticancer screen, dose series, 48 h

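How tested: cells in 96-well plates exposed to compound for 48 hours at five concentrations. Here, GI50 denotes the concentration required for 50% inhibition of growth. The concentration for full growth arrest is given as TGI.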

Regarding `CCOC(=O)NC1CC2CCC1(OC)C=C2C` (centres undefined), the TGI in the experiment on SK-MEL-2 melanoma, with OVCAR-4 ovarian, in the experiment with OVCAR-5 ovarian, in the experiment with SW-620 colon, in the experiment on DLD-1 colon and with A549 NSCLC was > 100 µM in each case. Further, the TGI with XF 498 CNS and with HL-60(TB) leukemia was > 100 µM in each case.

Consider `CCCN1C(=O)CNC(=O)c2[nH]cnc21`, for which the TGI in the experiment on SK-MEL-2 melanoma, in the experiment with OVCAR-5 ovarian, with SW-620 colon, in the experiment with DLD-1 colon, in the experiment on A549 NSCLC and in the experiment on XF 498 CNS was > 100 µM each time. The TGI in the experiment on HL-60(TB) leukemia was > 100 µM.

`O=C(O)[C@@H](NS(=O)(=O)c1ccc([N+](=O)[O-])cc1)c1ccccc1`: the TGI in the experiment with SK-MEL-2 melanoma, in the experiment on OVCAR-4 ovarian, with OVCAR-5 ovarian, in the experiment on SW-620 colon, in the experiment on DLD-1 colon and in the experiment on A549 NSCLC was > 100 µM each time. Further, the TGI in the experiment on XF 498 CNS and with HL-60(TB) leukemia was > 100 µM in each case.

On to `C=C[C@H]1C=Cc2c(OC)cccc2[C@@H]1COP1(=S)NC(C)C(c2ccccc2)O1` (some centres undefined), for which the TGI is > 100 µM in the experiment on OVCAR-4 ovarian; > 100 µM in the experiment on SW-620 colon; > 100 µM with DLD-1 colon; > 100 µM with A549 NSCLC; > 100 µM with XF 498 CNS; 50.2 µM in the experiment with HL-60(TB) leukemia.

On to `O=C(C=Nc1ccccc1C(=O)[O-])c1cccs1.O=C(C=Nc1ccccc1C(=O)[O-])c1cccs1.[Zn+2]`, for which the TGI was 52.1 µM in the experiment on SK-MEL-2 melanoma; 71.9 µM in the experiment with OVCAR-5 ovarian; > 100 µM in the experiment on SW-620 colon; > 100 µM with DLD-1 colon; > 100 µM in the experiment on A549 NSCLC; > 100 µM with HL-60(TB) leukemia.

As for `CC(C)c1cccc(C(C)C)c1NC(=O)CCC(=O)NN`, the TGI was > 100 µM in the experiment with OVCAR-4 ovarian; > 100 µM in the experiment with OVCAR-5 ovarian; 42.9 µM with SW-620 colon; > 100 µM in the experiment with DLD-1 colon; > 100 µM in the experiment with A549 NSCLC; > 100 µM in the experiment with HL-60(TB) leukemia.

As to `Nc1nc(=Nc2ccccc2)ss1`, the TGI in the experiment on OVCAR-4 ovarian, with OVCAR-5 ovarian, in the experiment on SW-620 colon, with DLD-1 colon, in the experiment with A549 NSCLC and in the experiment on XF 498 CNS was > 100 µM in each case. The same molecule showed a TGI in the experiment on HL-60(TB) leukemia of 60.2 µM.

As for `FC(F)(F)c1cccc(C2SCc3nc4ccccc4n32)c1` (centres undefined), the TGI with SK-MEL-2 melanoma, in the experiment on OVCAR-5 ovarian, with SW-620 colon, with DLD-1 colon, in the experiment on A549 NSCLC and with HL-60(TB) leukemia was > 100 µM in each case.

As for `O=C(Cc1ccccc1)NS(=O)(=O)c1ccccc1`, the TGI with SK-MEL-2 melanoma, in the experiment with OVCAR-4 ovarian, in the experiment with OVCAR-5 ovarian, in the experiment on SW-620 colon, in the experiment with DLD-1 colon and in the experiment on A549 NSCLC was > 100 µM each time. Besides, the TGI in the experiment with XF 498 CNS and in the experiment with HL-60(TB) leukemia was > 100 µM each time.

As for `CCOC(=O)c1cc(OC(=O)CC)c2c(OC)ccc(OC)c2c1`, the TGI in the experiment on SK-MEL-2 melanoma, in the experiment with OVCAR-4 ovarian, with OVCAR-5 ovarian, with SW-620 colon, in the experiment on DLD-1 colon and in the experiment on A549 NSCLC was > 100 µM each time. In the experiment on XF 498 CNS, the TGI was > 100 µM.

As for `COc1ccccc1NC(=O)C(CC(C(=O)Nc1ccccc1OC)/C(C)=N/NC(=O)c1ccccc1O)/C(C)=N/NC(=O)c1ccccc1O` (centres undefined), the TGI in the experiment with SK-MEL-2 melanoma, in the experiment on OVCAR-4 ovarian, with OVCAR-5 ovarian, in the experiment with SW-620 colon, in the experiment with DLD-1 colon and in the experiment on A549 NSCLC was > 100 µM each time. Also, the TGI in the experiment with XF 498 CNS and with HL-60(TB) leukemia was > 100 µM each time.

`FC(F)(F)c1nc(-c2ccccc2)oc1Sc1oc(-c2ccccc2)nc1C(F)(F)F`: the TGI is > 100 µM in the experiment on SK-MEL-2 melanoma; 90.2 µM in the experiment on OVCAR-4 ovarian; > 100 µM in the experiment on OVCAR-5 ovarian; > 100 µM in the experiment with SW-620 colon; > 100 µM in the experiment on DLD-1 colon; > 100 µM with A549 NSCLC. The TGI in the experiment on XF 498 CNS and in the experiment on HL-60(TB) leukemia was > 100 µM throughout.

In the case of `Cc1ccc(N2C(=O)C(Cl)=C(Cl)C2=O)cc1`, the TGI in the experiment on SK-MEL-2 melanoma is > 100 µM; in the experiment with OVCAR-4 ovarian, 34.4 µM; in the experiment on OVCAR-5 ovarian, 35.9 µM; with SW-620 colon, 34.8 µM; in the experiment with DLD-1 colon, 40.7 µM; with A549 NSCLC, > 100 µM.

In the case of `Cn1nc2ccccc2cc1=O`, the TGI in the experiment on SK-MEL-2 melanoma, in the experiment with OVCAR-4 ovarian, in the experiment on OVCAR-5 ovarian, in the experiment on SW-620 colon, with DLD-1 colon and with A549 NSCLC was > 100 µM in each case. Also, in the experiment with XF 498 CNS, the TGI is > 100 µM.

For `C[CH2][Sn]([CH2]C)([O]C(=O)c1ccc(F)cc1)[O][Sn]([CH2]C)([CH2]C)[O]C(=O)c1ccc(F)cc1`, the GI50 was 28.5 µM with SK-MEL-2 melanoma; > 100 µM with OVCAR-4 ovarian; > 100 µM in the experiment on OVCAR-5 ovarian; 22.8 µM in the experiment on SW-620 colon; 23.6 µM in the experiment with DLD-1 colon; > 100 µM in the experiment with A549 NSCLC. Also, the GI50 in the experiment with XF 498 CNS is 16.4 µM; in the experiment on HL-60(TB) leukemia, > 100 µM. Further, the TGI is 83.3 µM in the experiment on SK-MEL-2 melanoma; > 100 µM with OVCAR-4 ovarian; > 100 µM in the experiment on OVCAR-5 ovarian; 45.5 µM in the experiment on SW-620 colon; > 100 µM in the experiment on DLD-1 colon; > 100 µM in the experiment with A549 NSCLC. Further, the TGI was 31 µM in the experiment on XF 498 CNS and > 100 µM in the experiment with HL-60(TB) leukemia.

In the case of `COC(=O)Cc1cc(=O)n2c([nH]c3ccccc32)c1C#N`, the TGI in the experiment with SK-MEL-2 melanoma, with OVCAR-4 ovarian, in the experiment with OVCAR-5 ovarian, with SW-620 colon, with DLD-1 colon and in the experiment with A549 NSCLC was > 100 µM in each case. For the same molecule, the TGI in the experiment on XF 498 CNS and in the experiment with HL-60(TB) leukemia was > 100 µM each time.

As to `C#Cc1cc(CN(CC(=O)OC(C)(C)C)CC(=O)OC(C)(C)C)nc(CN(CC(=O)OC(C)(C)C)CC(=O)OC(C)(C)C)c1`, the TGI was 8.24 µM in the experiment on SK-MEL-2 melanoma; 37.9 µM in the experiment with OVCAR-4 ovarian; > 100 µM in the experiment with OVCAR-5 ovarian; 21.1 µM with SW-620 colon; 89.4 µM in the experiment with A549 NSCLC; 36.6 µM in the experiment on XF 498 CNS. Moreover, the TGI in the experiment with HL-60(TB) leukemia amounted to 9.72 µM.
